Common to all, as to format: in vivo
In one data set the test system is Digitaria sanguinalis. Description: Post-emergence herbicidal action in greenhouse against DIGSA. The following applies: 20 g/ha, visual rating after ca. 3 weeks. The essentials:
(§1)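 Post-emergence greenhouse spray at 20 g/ha and lower, one-leaf stage (2–3 weeks after sowing in sandy loam). Visual % effect at ~3 weeks vs untreated; 100% = plants dead.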

The test system of a further data set is Zea mays. Description: Post-emergence action on crop plants in greenhouse, ZEAMX. Conditions: 1,25 g/ha, crop plant, post-emergence, visual rating after ca. 3 weeks; 100% = plants dead, 0% = like control plants. The text has this: (§2) Biologische Beispiele: • Die folgenden Abkürzungen werden für die in den folgenden Tabellen aufgeführten Kultur- und Schadpflanzen verwendet: ABUTH: Abutilon theophrasti ALOMY: Alopecurus myosuroides AMARE: Amaranthus retroflexus BRSNS: Brassica napus DIGSA: Digitaria sanguinalis ECHCG: Echinochloa crus-galli GLXMA: Glycine max KCHSC: Kochia scoparia LOLRI: Lolium rigidum MATIN: Matricaria inodora ORYZA: Oryza sativa PHPBU: Pharbitis purpurea POLCO: Polygonum convolvulus SETVI: Setaria viridis VERPE: Veronica persica VIOTR: Viola tricolor TRZAS: Triticum aestivum ZEAMX: Zea mays • A. Herbizide Wirkung im Nachauflauf
Samen von mono- bzw. dikotylen Kulturpflanzen wurden in Kunststoff- oder Holzfasertöpfen in sandigem Lehmboden ausgelegt, mit Erde abgedeckt und im Gewächshaus unter kontrollierten Wachstumsbedingungen angezogen. 2 bis 3 Wochen nach der Aussaat wurden die Versuchspflanzen im Einblattstadium behandelt. Die in Form von benetzbaren Pulvern (WP) oder als Emulsionskonzentrate (EC) formulierten erfindungsgemäßen Verbindungen wurden dann als wässrige Suspension bzw. Emulsion unter Zusatz von 0,5% Additiv mit einer Wasseraufwandmenge von umgerechnet 600 l/ha auf die grünen Pflanzenteile gesprüht. Nach ca. 3 Wochen Standzeit der Versuchspflanzen im Gewächshaus, unter optimalen Wachstumsbedingungen, wurde die Wirkung der Präparate visuell im Vergleich zu unbehandelten Kontrollen bonitiert. Beispielsweise bedeutet 100% Wirkung = Pflanzen sind abgestorben, 0% Wirkung = wie Kontrollpflanzen.
In den nachstehenden Tabellen B1 bis B4 sind die Wirkungen ausgewählter Verbindungen der allgemeinen Formel (I) gemäß der Tabelle 1 auf verschiedene Kulturpflanzen und einer Aufwandmenge entsprechend 20 g/ha und niedriger, die gemäß zuvor genannter Versuchsvorschrift erhalten wurden, dargestellt. Tabelle B1a: Nachauflaufwirkung bei 1,25 g/ha gegen ZEAMX in %

For the next data set, the system named is Polygonum convolvulus. The data set can be described thus: Post-emergence herbicidal action in greenhouse against POLCO. Conditions: visual rating after ca. 3 weeks. The essentials:
as §1

In a further data set the test system is Amaranthus retroflexus. The data set can be described thus: Post-emergence herbicidal action in greenhouse against AMARE. Conditions: post-emergence spray, 600 l/ha water, visual rating after ca. 3 weeks vs untreated controls, 100% = plants dead, 0% = like control plants. The essentials: as §1
In a further data set the test system is Viola tricolor. Description: Post-emergence herbicidal action in greenhouse against VIOTR. The following applies: visual rating after ca. 3 weeks. The gist of the method: as §1
The subject of the next data set is Brassica napus. The data set can be described thus: Post-emergence action on crop plants in greenhouse, BRSNS. Conditions: crop plant; 1,25 g/ha; post-emergence spray, 600 l/ha water; visual rating after ca. 3 weeks vs untreated controls; 100% = plants dead, 0% = like control plants.
Source text: as §2
Samen von mono- bzw. dikotylen Kulturpflanzen wurden in Kunststoff- oder Holzfasertöpfen in sandigem Lehmboden ausgelegt, mit Erde abgedeckt und im Gewächshaus unter kontrollierten Wachstumsbedingungen angezogen. 2 bis 3 Wochen nach der Aussaat wurden die Versuchspflanzen im Einblattstadium behandelt. Die in Form von benetzbaren Pulvern (WP) oder als Emulsionskonzentrate (EC) formulierten erfindungsgemäßen Verbindungen wurden dann als wässrige Suspension bzw. Emulsion unter Zusatz von 0,5% Additiv mit einer Wasseraufwandmenge von umgerechnet 600 l/ha auf die grünen Pflanzenteile gesprüht. […]

A further data set has as its system Veronica persica. Description: Post-emergence herbicidal action in greenhouse against VERPE. Conditions: 20 g/ha, visual rating after ca. 3 weeks. The essentials:
as §1

The test system of the next data set is Oryza sativa. Description: Post-emergence action on crop plants in greenhouse, ORYZA. Conditions: crop plant, visual rating after ca. 3 weeks, 100% = plants dead, 0% = like control plants.
The next data set relates to Pharbitis purpurea. Description: Post-emergence herbicidal action in greenhouse against PHBPU. The following applies: visual rating after ca. 3 weeks. The gist of the method: as §1
The next data set concerns Setaria viridis. Description: Post-emergence herbicidal action in greenhouse against SETVI. The following applies: visual rating after ca. 3 weeks. The essentials:
as §1

Another data set relates to Matricaria inodora. Description: Post-emergence herbicidal action in greenhouse against MATIN. Conditions: 20 g/ha, visual rating after ca. 3 weeks. The essentials: as §1
The next data set deals with Triticum aestivum. Description: Post-emergence action on crop plants in greenhouse, TRZAS. Conditions: crop plant, visual rating after ca. 3 weeks, 100% = plants dead, 0% = like control plants.

`CC(C)(OC(=O)c1cc(-n2c(=O)cc(C(F)(F)F)n(N)c2=O)ccc1Cl)C(=O)O` [I.2-481, 2-({5-[3-Amino-2,6-dioxo-4-(trifluormethyl)-3,6-dihydropyrimidin-1(2H)-yl]-2-chlorbenzoyl}oxy)-2-methylpropansäure]: in the data set with Digitaria sanguinalis, the “Nachauflaufwirkung gegen DIGSA” value is 100%. Further, the “Nachauflaufwirkung gegen ZEAMX” value in the data set with Zea mays came out at 20%. Besides, the “Nachauflaufwirkung gegen POLCO” value with Polygonum convolvulus (5 g/ha) and with Polygonum convolvulus (20 g/ha) was 100% in each case. The “Nachauflaufwirkung gegen AMARE” value was found to be 90% in the data set with Amaranthus retroflexus (1,25 g/ha), 100% with Amaranthus retroflexus (5 g/ha) and 100% in the data set with Amaranthus retroflexus (20 g/ha). In addition, the entries for the “Nachauflaufwirkung gegen VIOTR” value in the data set on Viola tricolor (5 g/ha) and in the data set on Viola tricolor (20 g/ha) were 80% and 100%, respectively. Further, the “Nachauflaufwirkung gegen BRSNS” value in the data set with Brassica napus was 0%. In addition, in the data set on Veronica persica, the “Nachauflaufwirkung gegen VERPE” value was found to be 100%. Also, the “Nachauflaufwirkung gegen ORYZA” value in the data set on Oryza sativa (1,25 g/ha), in the data set with Oryza sativa (5 g/ha) and in the data set with Oryza sativa (20 g/ha) was 0% in each case. Besides, the “Nachauflaufwirkung gegen PHBPU” value in the data set on Pharbitis purpurea (5 g/ha) and in the data set with Pharbitis purpurea (20 g/ha) was 100% throughout. The results for the “Nachauflaufwirkung gegen SETVI” value with Setaria viridis (1,25 g/ha), in the data set with Setaria viridis (5 g/ha) and in the data set on Setaria viridis (20 g/ha) were 80%, 90% and 100%, respectively. The “Nachauflaufwirkung gegen MATIN” value in the data set with Matricaria inodora is recorded as 100%. Further, the entries for the “Nachauflaufwirkung gegen TRZAS” value with Triticum aestivum (1,25 g/ha), in the data set on Triticum aestivum (5 g/ha) and with Triticum aestivum (20 g/ha) were 0%, 0% and 20%, respectively.
